The record followed here is patent US9567302B2, “Carbamate compounds and of making and using same” (Abide Therapeutics, Inc., priority 2012, dated 2017).

For orientation: inhibition means the percentage by which the read-out fell short of the control. A high value points to a response far below the control. In general, IC50 refers to the concentration that gives 50% inhibition. Low values mean greater potency in that assay, high ones weaker potency in that assay.

Structures are written as SMILES.

Holding throughout (assay type): biochemical
Assay [1] addresses T1, MAGL (Mus musculus, UniProt O35678).
T1 sequence (O35678 1-303): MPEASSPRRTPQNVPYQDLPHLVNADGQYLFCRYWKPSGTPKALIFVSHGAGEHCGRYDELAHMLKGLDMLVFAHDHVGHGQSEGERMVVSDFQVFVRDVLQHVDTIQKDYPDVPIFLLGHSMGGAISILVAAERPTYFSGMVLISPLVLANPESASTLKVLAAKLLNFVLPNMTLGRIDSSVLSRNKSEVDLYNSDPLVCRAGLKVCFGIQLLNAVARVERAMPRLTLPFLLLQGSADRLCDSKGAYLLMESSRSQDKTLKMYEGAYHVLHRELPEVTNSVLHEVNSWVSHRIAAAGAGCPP
Briefly: In vitro competitive ABPP, % inhibition at fixed concentration, MAGL. Set-up: from tissue. The procedure:
(§1) In Vitro Competitive Activity-Based Protein Profiling.
(§2) Proteomes (mouse brain membrane fraction or cell lysates) (50 μL, 1.0 mg/ml total protein concentration) were preincubated with varying concentrations of inhibitors at 37° C. After 30 min, FP-Rh (1.0 μL, 50 μM in DMSO) was added and the mixture was incubated for another 30 min at 37° C. Reactions were quenched with SDS loading buffer (50 μL—4×) and run on SDS-PAGE. Following gel imaging, serine hydrolase activity was determined by measuring fluorescent intensity of gel bands corresponding to MAGL, ABHD6 and FAAH using ImageJ 1.43u software.

For assay [2], the target named is T2, ABHD6 (Mus musculus, UniProt Q8R2Y0).
T2 sequence (Q8R2Y0 1-336): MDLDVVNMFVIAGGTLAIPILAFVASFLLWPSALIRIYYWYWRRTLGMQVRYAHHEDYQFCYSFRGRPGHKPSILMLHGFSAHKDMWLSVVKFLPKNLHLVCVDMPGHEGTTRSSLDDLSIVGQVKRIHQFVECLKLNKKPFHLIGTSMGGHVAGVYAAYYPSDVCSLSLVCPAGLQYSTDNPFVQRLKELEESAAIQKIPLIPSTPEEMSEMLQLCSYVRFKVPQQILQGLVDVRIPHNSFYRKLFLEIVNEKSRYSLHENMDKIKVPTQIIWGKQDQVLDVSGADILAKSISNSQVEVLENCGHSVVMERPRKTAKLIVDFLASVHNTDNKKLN
The experiment in a line: In vitro competitive ABPP, % inhibition at fixed concentration, ABHD6. Set-up: from tissue. The procedure:
as §1, §2

The target in assay [3] is T3, FAAH (Mus musculus, UniProt O08914).
T3 sequence (O08914 1-579): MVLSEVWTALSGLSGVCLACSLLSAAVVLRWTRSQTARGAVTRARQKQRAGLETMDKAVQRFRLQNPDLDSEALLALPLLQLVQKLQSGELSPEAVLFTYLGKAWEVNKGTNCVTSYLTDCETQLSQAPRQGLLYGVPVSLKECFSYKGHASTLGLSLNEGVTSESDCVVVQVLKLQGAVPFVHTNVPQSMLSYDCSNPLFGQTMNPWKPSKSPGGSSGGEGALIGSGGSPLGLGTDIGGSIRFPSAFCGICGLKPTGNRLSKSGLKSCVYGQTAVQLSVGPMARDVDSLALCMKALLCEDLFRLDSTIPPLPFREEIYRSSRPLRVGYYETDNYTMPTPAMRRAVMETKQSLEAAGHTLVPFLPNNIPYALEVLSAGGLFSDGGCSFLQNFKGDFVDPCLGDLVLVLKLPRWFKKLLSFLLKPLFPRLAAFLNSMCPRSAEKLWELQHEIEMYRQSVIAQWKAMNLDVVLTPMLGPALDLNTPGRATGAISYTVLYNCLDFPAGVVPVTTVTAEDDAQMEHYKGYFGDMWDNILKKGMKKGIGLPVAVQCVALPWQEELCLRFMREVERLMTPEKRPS
Briefly: In vitro competitive ABPP, % inhibition at fixed concentration, FAAH. More on the design: from tissue. The method, then:
as §1, §2

In assay [4] the target is T2, ABHD6. The experiment in a line: In vitro competitive activity-based protein profiling (FP-Rh), mouse ABHD6. As to conditions: Table 1, mouse proteome, 30 min preincubation at 37° C. Set-up: from tissue; host or cells: mouse brain membrane fraction. The procedure:
as §1
(§3) Proteomes (mouse brain membrane fraction or cell lysates) (50 μL, 1.0 mg/ml total protein concentration) were preincubated with varying concentrations of inhibitors at 37° C. After 30 min, FP-Rh (1.0 μL, 50 μM in DMSO) was added and the mixture was incubated for another 30 min at 37° C. Reactions were quenched with SDS loading buffer (50 μL—4×) and run on SDS-PAGE.

The target of assay [5] is T3, FAAH. Briefly: In vitro competitive activity-based protein profiling (FP-Rh), mouse FAAH. More on the design: from tissue; host or cells: mouse brain membrane fraction. Particulars: Table 1, mouse proteome, 30 min preincubation at 37° C. The method, then: as §1, §3
Assay [6] concerns the target T1, MAGL. Briefly: In vitro competitive activity-based protein profiling (FP-Rh), mouse MAGL. As to conditions: Table 1, mouse proteome, 30 min preincubation at 37° C. Set-up: from tissue; host or cells: mouse brain membrane fraction. The procedure:
as §1, §3

Regarding `O=C(ON1C(=O)CCC1=O)N1CCN(Cc2cc(C(F)(F)F)ccc2N2CCOCC2)CC1` [Example 119, 2,5-Dioxopyrrolidin-1-yl 4-{[2-(morpholin-4-yl)-5-(trifluoromethyl)phenyl]methyl}piperazine-1-carboxylate], the inhibition at 1 µM on MAGL [1] was 25 to 75%; at ABHD6 [2] it was 25 to 75%; at FAAH [3], < 25%.
In the case of `O=C(ON1C(=O)CCC1=O)N1CCN(Cc2ccc(C(=O)N3CCC3)cc2Cl)CC1` [Example 194, 2,5-Dioxopyrrolidin-1-yl 4-{[4-(azetidine-1-carbonyl)-2-chlorophenyl]methyl}piperazine-1-carboxylate], the inhibition at 1 µM on MAGL [1] is 25 to 75%; at ABHD6 [2], 25 to 75%; at FAAH [3] it was < 25%.
As for `O=C(ON1C(=O)CCC1=O)N1CCN(Cc2cc(Cl)ccc2C(=O)N2CCCC2)CC1` [Example 200, 2,5-Dioxopyrrolidin-1-yl 4-{[5-chloro-2-(pyrrolidine-1-carbonyl)phenyl]methyl}piperazine-1-carboxylate], the inhibition at 1 µM at MAGL [1], at ABHD6 [2] and on FAAH [3] was < 25% each time.
For the compound `Cc1cc(-c2ccc(CN3CCN(C(=O)ON4C(=O)CCC4=O)CC3)c(C)c2)cc(C)n1` [Example 113, 2,5-Dioxopyrrolidin-1-yl 4-{[4-(2,6-dimethylpyridin-4-yl)-2-methylphenyl]methyl}piperazine-1-carboxylate], the inhibition at 1 µM at MAGL [1] was 25 to 75%; at ABHD6 [2], 25 to 75%; on FAAH [3], < 25%.
As for `O=C(ON1C(=O)CCC1=O)N1CCN(Cc2ccc(C(=O)N3CCOCC3)cc2Cl)CC1` [Example 192, 2,5-dioxopyrrolidin-1-yl 4-{[2-chloro-4-(morpholine-4-carbonyl)phenyl]methyl}piperazine-1-carboxylate], the inhibition at 1 µM is 25 to 75% at MAGL [1], 25 to 75% at ABHD6 [2] and < 25% at FAAH [3].
On to `Cc1cccc(-c2ccc(CN3CCN(C(=O)ON4C(=O)CCC4=O)CC3)nc2C)c1` [Example 180, 2,5-Dioxopyrrolidin-1-yl 4-{[6-methyl-5-(3-methylphenyl)pyridin-2-yl]methyl}piperazine-1-carboxylate], for which the inhibition at 1 µM is > 75% at MAGL [1], > 75% on ABHD6 [2] and < 25% at FAAH [3].
`Cc1nc(-c2ccccc2F)ccc1CN1CCN(C(=O)ON2C(=O)CCC2=O)CC1` [Example 183, 2,5-Dioxopyrrolidin-1-yl 4-{[6-(2-fluorophenyl)-2-methylpyridin-3-yl]methyl}piperazine-1-carboxylate]: the inhibition at 1 µM at MAGL [1] was 25 to 75%; at ABHD6 [2], > 75%; at FAAH [3], < 25%.
For the compound `Cc1cc(-c2ccc(CN3CCN(C(=O)ON4C(=O)CCC4=O)CC3)c(F)c2)cc(C)n1` [Example 176, 2,5-Dioxopyrrolidin-1-yl 4-{[4-(2,6-dimethylpyridin-4-yl)-2-fluorophenyl]methyl}piperazine-1-carboxylate], the inhibition at 1 µM on MAGL [1] is 25 to 75%; at ABHD6 [2], 25 to 75%; on FAAH [3] it was < 25%.
Turning to `Cc1cc(-c2cccnc2)ccc1CN1CCN(C(=O)ON2C(=O)CCC2=O)CC1` [Example 172, 2,5-Dioxopyrrolidin-1-yl 4-{[2-methyl-4-(pyridin-3-yl)phenyl]methyl}piperazine-1-carboxylate], the values for the inhibition at 1 µM at MAGL [1], at ABHD6 [2] and on FAAH [3] were 25 to 75%, 25 to 75% and < 25%, respectively.
In the case of `Cc1c(CN2CCN(C(=O)ON3C(=O)CCC3=O)CC2)cccc1C(=O)N1CCCC1` [Example 206, 2,5-Dioxopyrrolidin-1-yl 4-{[2-methyl-3-(pyrrolidine-1-carbonyl)phenyl]methyl}piperazine-1-carboxylate], the values for the inhibition at 1 µM on MAGL [1], at ABHD6 [2] and at FAAH [3] were 25 to 75%, > 75% and < 25%, respectively.
The matching figures for `COc1ccc(-c2cc(CN3CCN(C(=O)ON4C(=O)CCC4=O)CC3)no2)cc1` [Example 136, 2,5-Dioxopyrrolidin-1-yl 4-((5-(4-methoxyphenyl)isoxazol-3-yl)methyl)piperazine-1-carboxylate]: 25 to 75%, 25 to 75% and < 25%.
In the case of `O=C(CN1CCCC1)N1CCN(C(=O)ON2C(=O)CCC2=O)CC1` [Example 214, 2,5-Dioxopyrrolidin-1-yl 4-[2-(pyrrolidin-1-yl)acetyl]piperazine-1-carboxylate], the inhibition at 10 µM at MAGL [1], on ABHD6 [2] and at FAAH [3] was < 25% throughout.
As for `Cc1cccc(-c2ccc(CN3CCN(C(=O)ON4C(=O)CCC4=O)CC3)c(C)c2)n1` [Example 173, 2,5-Dioxopyrrolidin-1-yl 4-{[2-methyl-4-(6-methylpyridin-2-yl)phenyl]methyl}piperazine-1-carboxylate], the inhibition at 1 µM on MAGL [1] was 25 to 75%; on ABHD6 [2], 25 to 75%; at FAAH [3], < 25%.
For the compound `O=C(ON1C(=O)CCC1=O)N1CCN(Cc2cc(C(F)(F)F)ccc2C(=O)N2CCCC2)CC1` [Example 204, 2,5-Dioxopyrrolidin-1-yl 4-{[2-(pyrrolidine-1-carbonyl)-5-(trifluoromethyl)phenyl]methyl}piperazine-1-carboxylate], the inhibition at 1 µM on MAGL [1], on ABHD6 [2] and on FAAH [3] was < 25% throughout.
In the case of `O=C(ON1C(=O)CCC1=O)N1CCN(C(c2ccc3c(c2)OCO3)c2ccc3c(c2)OCO3)CC1` [Example 156, 2,5-Dioxopyrrolidin-1-yl 4-[bis(2H-1,3-benzodioxol-5-yl)methyl]piperazine-1-carboxylate], the inhibition at 1 µM at MAGL [1] was 25 to 75%; on ABHD6 [2], 25 to 75%; on FAAH [3] it was < 25%.
As for `C[C@H]1CN(Cc2ccc(N3CCOCC3)cc2OC(F)(F)F)CCN1C(=O)ON1C(=O)CCC1=O` [Example 90, 2,5-Dioxopyrrolidin-1-yl (2S)-2-methyl-4-{[4-(morpholin-4-yl)-2-(trifluoromethoxy)phenyl]methyl}piperazine-1-carboxylate], the inhibition at 1 µM is 25 to 75% at MAGL [1], 25 to 75% on ABHD6 [2] and < 25% on FAAH [3].
As for `O=C(ON1C(=O)CCC1=O)N1CCCC1` [Example 29, 2,5-Dioxopyrrolidin-1-yl pyrrolidine-1-carboxylate], the 50% inhibitory concentration (IC50) at ABHD6 [4], on FAAH [5] and on MAGL [6] was > 10000 nM in each case.
Turning to `O=C(ON1C(=O)c2ccccc2C1=O)N1CCC(CCc2ccc(Cl)cc2)CC1` [Example 32, 1,3-Dioxo-2,3-dihydro-1H-isoindol-2-yl 4-[2-(4-chlorophenyl)ethyl]piperidine-1-carboxylate], the 50% inhibitory concentration (IC50) was < 100 nM at ABHD6 [4], < 100 nM on FAAH [5] and 1000 to 10000 nM on MAGL [6].
As for `CC(C)(C)OC(=O)N1CCN(C(=O)ON2C(=O)CCC2=O)CC1` [Example 4, 1-tert-Butyl 4-(2,5-dioxopyrrolidin-1-yl) piperazine-1,4-dicarboxylate], the IC50 on ABHD6 [4], on FAAH [5] and at MAGL [6] was > 10000 nM in each case.
